# Measurements published in patent US20200267980A1, “Herbicidally Active Pyridyl-/Pyrimidyl-Pyrimidine Derivatives” (Syngenta Participations AG, priority 2017, published 2020).
# Experiments:
# Assay type in all cases: in vivo
# Avena fatua (AVEFA) [1] = test: Post-emergence herbicidal activity, glasshouse pot test; conditions: 1000 g/ha, post-emergence spray after 8 days cultivation, evaluated after 13 days, damage score 0-5
# Experimental: (§1) Seeds of a variety of test species were sown in standard soil in pots: Triticum aestivium (TRZAW), Avena fatua (AVEFA), Alopecurus myosuroides (ALOMY), Echinochloa crus-galli (ECHCG), Lolium perenne (LOLPE), and Setaria faberi (SETFA). After 8 days cultivation (post-emergence) under controlled conditions in a glasshouse (at 24/16° C., day/night; 14 hours light; 65% humidity), the plants were sprayed with an aqueous spray solution derived from the formulation of the technical active ingredient in acetone/water (50:50) solution containing 0.5% Tween 20 (polyoxyethelyene sorbitan monolaurate, CAS RN 9005-64-5). The test plants were then grown in a glasshouse under controlled conditions (at 24/16° C., day/night; 14 hours light; 65% humidity) and watered twice daily. After 13 days, the test was evaluated (5=total damage to plant; 0=no damage to plant).
# [2] = system: Echinochloa crus-galli (ECHCG); test: as above; set-up: key: 5=total damage to plant; 0=no damage to plant; conditions: 1000 g/ha, post-emergence spray after 8 days cultivation, evaluated after 13 days, damage score 0-5
# Experimental: as §1
# [3] = system: Triticum aestivium (TRZAW); test: as above; set-up: key: 5=total damage to plant; 0=no damage to plant; conditions: 1000 g/ha, post-emergence spray after 8 days cultivation, evaluated after 13 days, damage score 0-5
# Experimental: as §1
# Lolium perenne (LOLPE) [4] = test: as above; set-up: key: 5=total damage to plant; 0=no damage to plant; conditions: 1000 g/ha, post-emergence spray after 8 days cultivation, evaluated after 13 days, damage score 0-5
# Experimental: as §1
# Setaria faberi (SETFA) [5] = test: as above; set-up: key: 5=total damage to plant; 0=no damage to plant; conditions: 1000 g/ha, post-emergence spray after 8 days cultivation, evaluated after 13 days, damage score 0-5
# Experimental: as §1
# [6] = system: Alopecurus myosuroides (ALOMY); test: as above; set-up: key: 5=total damage to plant; 0=no damage to plant; conditions: 1000 g/ha, post-emergence spray after 8 days cultivation, evaluated after 13 days, damage score 0-5
# Experimental: as §1
# [7] = system: Echinochloa crus-galli (ECHCG); test: Pre-emergence herbicidal activity, glasshouse pot test; set-up: key: 5=total damage to plant; 0=no damage to plant; conditions: 1000 g/ha, pre-emergence spray, evaluated after 13 days, damage score 0-5
# Experimental: as §1, with “After” for “After 8 days”, “for one day (pre-emergence)” for “(post-emergence)”
# Avena fatua (AVEFA) [8] = test: as above; set-up: key: 5=total damage to plant; 0=no damage to plant; conditions: 1000 g/ha, pre-emergence spray, evaluated after 13 days, damage score 0-5
# Experimental: as §1, with “After” for “After 8 days”, “for one day (pre-emergence)” for “(post-emergence)”
# [9] = system: Triticum aestivium (TRZAW); test: as above; set-up: key: 5=total damage to plant; 0=no damage to plant; conditions: 1000 g/ha, pre-emergence spray, evaluated after 13 days, damage score 0-5
# Experimental: as §1, with “After” for “After 8 days”, “for one day (pre-emergence)” for “(post-emergence)”
# Lolium perenne (LOLPE) [10] = test: as above; set-up: key: 5=total damage to plant; 0=no damage to plant; conditions: 1000 g/ha, pre-emergence spray, evaluated after 13 days, damage score 0-5
# Experimental: as §1, with “After” for “After 8 days”, “for one day (pre-emergence)” for “(post-emergence)”
# Setaria faberi (SETFA) [11] = test: as above; set-up: key: 5=total damage to plant; 0=no damage to plant; conditions: 1000 g/ha, pre-emergence spray, evaluated after 13 days, damage score 0-5
# Experimental: as §1, with “After” for “After 8 days”, “for one day (pre-emergence)” for “(post-emergence)”
# [12] = system: Alopecurus myosuroides (ALOMY); test: as above; set-up: key: 5=total damage to plant; 0=no damage to plant; conditions: 1000 g/ha, pre-emergence spray, evaluated after 13 days, damage score 0-5
# Experimental: as §1, with “After” for “After 8 days”, “for one day (pre-emergence)” for “(post-emergence)”
SMILES,"Control of weed species after post-emergence application, AVEFA (Avena fatua (AVEFA) [1])","Control of weed species after post-emergence application, ECHCG [2]","Control of weed species after post-emergence application, TRAZW [3]","Control of weed species after post-emergence application, LOLPE (Lolium perenne (LOLPE) [4])","Control of weed species after post-emergence application, SETFA (Setaria faberi (SETFA) [5])","Control of weed species after post-emergence application, ALOMY [6]","Control of weed species after pre-emergence application, ECHCG [7]","Control of weed species after pre-emergence application, AVEFA (Avena fatua (AVEFA) [8])","Control of weed species after pre-emergence application, TRAZW [9]","Control of weed species after pre-emergence application, LOLPE (Lolium perenne (LOLPE) [10])","Control of weed species after pre-emergence application, SETFA (Setaria faberi (SETFA) [11])","Control of weed species after pre-emergence application, ALOMY [12]"
O=C(COc1ccccc1)Nc1cnc(-c2cncc(F)c2)nc1C(F)(F)F [Compound F18],3,4,1,1,4,0,3,1,0,0,4,0
COCC(=O)Nc1cnc(-c2cncc(F)c2)nc1C(F)(F)F [Compound F3],4,4,1,2,4,0,3,2,0,1,3,0
CCC(=O)N(C(=O)CC)c1cnc(-c2cncc(F)c2)nc1C(F)(F)F [Compound F7],2,5,1,2,4,1,2,1,0,1,2,0
O=C(Nc1cnc(-c2cncc(F)c2)nc1C(F)(F)F)c1cccs1 [Compound F9],2,4,1,2,4,0,2,1,0,1,4,0
O=C(CCC1CCCC1)Nc1cnc(-c2cncnc2)nc1C(F)(F)F [Compound F17],2,4,1,1,4,0,3,1,0,0,4,0
O=C(Nc1cnc(-c2cncc(F)c2)nc1C(F)(F)F)C(Cl)(Cl)Cl [Compound F5],2,4,1,3,5,2,3,1,0,0,5,0
O=C(CC(F)(F)F)Nc1cnc(-c2cncc(F)c2)nc1C(F)(F)F [Compound F23],3,5,0,2,5,0,3,0,0,0,5,0
O=C1CCCN1c1cnc(-c2cncc(F)c2)nc1C(F)(F)F [Compound F22],3,5,1,1,5,0,3,0,0,0,5,0
CC(=O)Nc1cnc(-c2cncnc2)nc1C(F)(F)F [Compound F31],3,4,1,2,4,1,4,2,1,1,4,1
